Data set [1] can be described thus: In vitro dissolution of glimepiride, USP Apparatus II (paddle), phosphate buffer pH 6.8. It counts as physicochemical. The conditions noted are these: mixed with hyperbranched polymer at the ratio of the invention, 37 °C, figures 3 and 4. Here is the method:
Approximately 50 % of the active ingredient (4 mg) is dissolved after 60 minutes of testing at following conditions: 37 °C in the USP Dissolution Tester, Apparatus II (Paddle method) using 900 ml of phosphate buffer (pH 6.8) as the dissolution medium and at a rotation rate of 75 rpm.
Dissolution of glimepiride was assessed at 37 °C by the USP Dissolution Tester, Apparatus II (Paddle method) at a rotation rate of 75 rpm using 900 ml of phosphate buffer (pH 6.8) as dissolution medium. The tested samples were added directly to the buffer in the correct amount to achieve a final concentration of 4,4 µg / mL glimepiride (equals therapeutic dose dissolved in 900 mL). Aliquots, each of 2 ml, from the dissolution medium were withdrawn at time intervals of 5, 15, 30, 60 minutes. The samples were withdrawn through syringe and filtered through Millipore filter and analyzed for glimepiride content using HPLC method.
The amount of dissolved glimepiride was estimated by reversed-phase HPLC (Waters Alliance) in a binary mode, with a photodiode array detector and a communication bus module. […]

For data set [2] the following is noted: pH 6.8.
A short description of data set [3]: physchem. The conditions noted are these: pH 6.8, aqueous buffer.
A short description of data set [4]: physchem. Particulars: 37 °C, pH 7, aqueous buffer, thermodynamic from solid. Here is the method:
Solubility as meant herein is measured using USP apparatus 2 (U.S. Pharmacopoeia 32-NF27) with agitation at 75 RPM in the dissolution medium of a phosphate buffer maintained at pH 6.8 and 37° C. Such low solubility makes preparing a useful pharmaceutical composition of acceptable size and efficacy especially difficult.
In a preferred embodiment, this is irrespective of the pharmacological effect it might have or ailment it is used to prevent or treat.
The pharmaceutical compositions, powders or granulates according to the invention comprise the hyperbranched polymer/API in specific weight ratios.

Data set [5] can be described thus: In vitro dissolution of pimobendan, USP Apparatus II (paddle), phosphate buffer pH 6.8. The format is physicochemical. The conditions noted are these: admixed with Hybrane S1200, 2% and 5% of active ingredient. Here is the method:
The samples of pimobendan were prepared as in examples 6 to 13. Dissolution of pimobendan was assessed at 37 °C by the USP Dissolution Tester, Apparatus II (Paddle method) at a rotation rate of 75 rpm, using 900 ml of phosphate buffer (pH 6.8) as the dissolution medium. The tested samples were added directly to the buffer in the correct amount to achieve a final concentration of 5.5 µg / mL pimobendan (equals therapeutic dose dissolved in 900 mL). Aliquots, each of 2 ml, from the dissolution medium were withdrawn at time intervals of 5, 15, 30, 60 minutes. The samples were withdrawn through syringe and filtered through Millipore filter in order to separate the undissolved sample and analyzed for pimobendan using HPLC method.

Data set [6] in a line: In vitro dissolution of indapamide, USP Apparatus II (paddle), phosphate buffer pH 6.8. The format is physicochemical. The conditions noted are these: with polyesteramide hyperbranched polymers, figure 5. Here is the method:
Dissolution of indapamide was assessed at 37 °C by the USP Dissolution Tester, Apparatus II (Paddle method), using 900 ml of phosphate buffer (pH 6.8) as the dissolution medium and at a rotation rate of 75 rpm. The tested samples were added directly to buffer in an amount in order to achieve a final concentration of 15 µg / mL indapamide. Aliquots, each of 2 ml, from the dissolution medium were withdrawn at time intervals of 5, 15, 30, 60 minutes. The samples were withdrawn through syringe and filtered through Millipore filter in order to separate the undissolved sample and analyzed for indapamide using UV spectrofotometry at 287 nm.

Setting [7] is: Solubility in the presence of Hybrane S1200.

The source of these data is EP2311435A1, “Pharmaceutical composition comprising poorly soluble active ingredient and hyperbranched polymer” (LEK Pharmaceuticals d.d., priority 2009, dated 2011).

≈ marks a conversion by molar mass, not a printed value.

With `CCC1=C(C)CN(C(=O)NCCc2ccc(S(=O)(=O)NC(=O)N[C@H]3CC[C@H](C)CC3)cc2)C1=O` [glimepiride], the solubility of glimepiride entry in data set [1] is given as “significantly increased”. In data set [2], this compound registered an Increase of 10 fold. Further, the solubility (as a rule, the concentration that dissolves in the medium under given conditions) in the data set “physchem [3]” (setting [7]) is 10 µg/mL; in “physchem [3]” (Solubility without polymer), 1 µg/mL (≈ 2.04 µM); in the data set “physchem [4]”, 1 µg/mL (≈ 2.04 µM).
Regarding `Cc1ccc(S(=O)(=O)NC(=O)NN2CC3CCCC3C2)cc1` (stereo not shown) [gliclazide], the concentration in solution in “physchem [4]” (solubility) was 50 µg/mL (≈ 155 µM).
Consider `COc1ccc(Cl)cc1C(=O)NCCc1ccc(S(=O)(=O)NC(=O)NC2CCCCC2)cc1` [glibenclamide], for which, in the data set “physchem [4]”, the concentration in solution (solubility) came to 60 µg/mL (≈ 121 µM).
As to `O=C1C(O)=C([C@H]2CC[C@H](c3ccc(Cl)cc3)CC2)C(=O)c2ccccc21` [atovaquone], in data set [2], the Increase was determined as 100 fold. The solubility in “physchem [3]” (setting [7]) stood at 3 µg/mL; in “physchem [3]” (Solubility without polymer), 0.03 µg/mL (≈ 0.0818 µM); in “physchem [4]”, 3 µg/mL (≈ 8.18 µM).
With `COc1ccc(-c2nc3ccc(C4=NNC(=O)CC4C)cc3[nH]2)cc1` (stereo not shown) [pimobendan], the Increase in data set [2] is listed as 50 fold. Further, the solubility is 210 µg/mL in “physchem [3]” (setting [7]), 4 µg/mL (≈ 12 µM) in “physchem [3]” (Solubility without polymer) and 210 µg/mL (≈ 628 µM) in the data set “physchem [4]”. In addition, the “solubility of the active ingredient” value in data set [5] is reported as “significantly increases”.
Consider `CN1CC(=O)N2[C@H](c3ccc4c(c3)OCO4)c3[nH]c4ccccc4c3C[C@@H]2C1=O` [tadalafil], for which the Increase in data set [2] is listed as 55 fold. Moreover, the figures for the solubility in the data set “physchem [3]” (setting [7]), in “physchem [3]” (Solubility without polymer) and in the data set “physchem [4]” were 110 µg/mL, 2 µg/mL (≈ 5.14 µM) and 110 µg/mL (≈ 282 µM), respectively.
With `CC1Cc2ccccc2N1NC(=O)c1ccc(Cl)c(S(N)(=O)=O)c1` (stereo not shown) [indapamide], the “solubility of the indapamide” value in data set [6] is on record as “remarkably enhance”. The compound also showed an Increase in data set [2] of 140 fold. Moreover, the solubility is 700 µg/mL in the data set “physchem [3]” (setting [7]), 5 µg/mL (≈ 13.7 µM) in the data set “physchem [3]” (Solubility without polymer) and 700 µg/mL (≈ 1910 µM) in “physchem [4]”.
